Here are results for 20 molecules from ChEMBL document CHEMBL5291721, “A preclinical secondary pharmacology resource illuminates target-adverse drug reaction associations of marketed drugs” (Nat Commun, 2023).

One test addresses T1, Adenosine receptor A1 (Homo sapiens, UniProt P30542).
T1 sequence (P30542 whole entry): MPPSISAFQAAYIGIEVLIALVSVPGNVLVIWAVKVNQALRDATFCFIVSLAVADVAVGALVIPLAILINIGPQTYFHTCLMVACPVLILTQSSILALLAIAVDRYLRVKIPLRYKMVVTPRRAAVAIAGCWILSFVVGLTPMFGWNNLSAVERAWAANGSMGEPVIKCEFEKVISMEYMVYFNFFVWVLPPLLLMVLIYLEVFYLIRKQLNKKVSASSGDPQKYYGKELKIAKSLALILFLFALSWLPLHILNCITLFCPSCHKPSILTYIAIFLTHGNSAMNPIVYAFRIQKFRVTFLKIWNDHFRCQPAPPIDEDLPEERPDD

Test [1] has as its target Beta-1 adrenergic receptor (Homo sapiens, UniProt P08588). It counts as functional.
The target in test [2] is T2, Gastrin/cholecystokinin type B receptor (Homo sapiens, UniProt P32239).
T2 sequence (P32239 whole entry): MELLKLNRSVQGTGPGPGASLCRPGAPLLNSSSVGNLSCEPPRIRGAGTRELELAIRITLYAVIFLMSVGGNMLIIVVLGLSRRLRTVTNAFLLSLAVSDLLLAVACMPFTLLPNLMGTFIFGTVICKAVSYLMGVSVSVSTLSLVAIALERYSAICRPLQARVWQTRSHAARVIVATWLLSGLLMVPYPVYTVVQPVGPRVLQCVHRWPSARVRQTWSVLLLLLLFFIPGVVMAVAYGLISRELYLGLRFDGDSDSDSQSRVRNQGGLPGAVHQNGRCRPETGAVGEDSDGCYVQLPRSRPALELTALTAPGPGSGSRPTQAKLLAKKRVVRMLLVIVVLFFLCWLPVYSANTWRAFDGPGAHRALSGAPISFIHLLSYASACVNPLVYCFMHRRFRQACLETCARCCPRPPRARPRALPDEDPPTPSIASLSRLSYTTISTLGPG

The target in another test is D(1A) dopamine receptor (Homo sapiens, UniProt P21728). It counts as functional, cell-based.
D(1A) dopamine receptor, sequence (P21728 whole entry): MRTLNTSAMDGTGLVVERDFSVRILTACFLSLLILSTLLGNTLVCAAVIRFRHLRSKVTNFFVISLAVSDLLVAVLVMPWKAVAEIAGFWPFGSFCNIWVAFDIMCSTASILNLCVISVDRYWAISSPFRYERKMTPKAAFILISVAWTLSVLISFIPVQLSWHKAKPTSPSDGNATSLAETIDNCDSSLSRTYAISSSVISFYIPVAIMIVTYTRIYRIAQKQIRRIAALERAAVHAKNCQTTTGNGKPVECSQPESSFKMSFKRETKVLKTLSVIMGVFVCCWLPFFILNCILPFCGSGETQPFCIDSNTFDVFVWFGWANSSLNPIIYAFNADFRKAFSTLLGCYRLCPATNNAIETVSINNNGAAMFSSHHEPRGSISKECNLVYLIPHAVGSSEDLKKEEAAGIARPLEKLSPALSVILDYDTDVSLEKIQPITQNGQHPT
For test [3], the target named is T3, 5-hydroxytryptamine receptor 2B (Homo sapiens, UniProt P41595). It counts as functional, cell-based.
T3 sequence (P41595 whole entry): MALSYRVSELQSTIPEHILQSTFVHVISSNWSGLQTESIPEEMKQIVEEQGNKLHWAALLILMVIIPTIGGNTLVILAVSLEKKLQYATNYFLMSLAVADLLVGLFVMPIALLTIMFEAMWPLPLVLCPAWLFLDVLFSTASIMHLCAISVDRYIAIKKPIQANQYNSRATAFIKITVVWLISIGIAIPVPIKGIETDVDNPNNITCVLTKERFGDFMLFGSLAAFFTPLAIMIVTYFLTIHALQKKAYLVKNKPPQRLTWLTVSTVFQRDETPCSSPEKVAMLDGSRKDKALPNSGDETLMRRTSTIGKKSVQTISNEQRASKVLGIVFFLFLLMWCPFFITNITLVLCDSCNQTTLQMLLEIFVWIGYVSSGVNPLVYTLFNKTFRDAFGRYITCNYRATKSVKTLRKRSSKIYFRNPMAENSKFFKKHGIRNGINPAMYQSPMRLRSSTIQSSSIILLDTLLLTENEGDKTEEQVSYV
For test [4], the target named is T4, Equilibrative nucleoside transporter 1 (Homo sapiens, UniProt Q99808).
T4 sequence (Q99808 whole entry): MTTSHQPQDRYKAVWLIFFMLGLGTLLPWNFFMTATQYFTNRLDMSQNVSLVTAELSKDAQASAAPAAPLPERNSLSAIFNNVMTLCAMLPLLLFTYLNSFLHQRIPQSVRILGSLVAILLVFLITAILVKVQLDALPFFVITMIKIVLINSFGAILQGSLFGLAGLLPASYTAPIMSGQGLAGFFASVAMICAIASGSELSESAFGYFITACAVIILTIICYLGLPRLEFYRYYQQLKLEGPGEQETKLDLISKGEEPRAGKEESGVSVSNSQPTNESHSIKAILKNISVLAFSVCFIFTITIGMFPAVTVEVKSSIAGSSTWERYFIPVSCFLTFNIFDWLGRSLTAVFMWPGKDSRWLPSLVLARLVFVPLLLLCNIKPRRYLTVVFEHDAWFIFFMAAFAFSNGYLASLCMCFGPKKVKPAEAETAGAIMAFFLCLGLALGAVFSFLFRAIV

Test [5] addresses cGMP-inhibited 3',5'-cyclic phosphodiesterase 3A (Homo sapiens, UniProt Q14432). It counts as functional.
In test [6] the target is Beta-2 adrenergic receptor (Homo sapiens, UniProt P07550).
Beta-2 adrenergic receptor, sequence (P07550 whole entry): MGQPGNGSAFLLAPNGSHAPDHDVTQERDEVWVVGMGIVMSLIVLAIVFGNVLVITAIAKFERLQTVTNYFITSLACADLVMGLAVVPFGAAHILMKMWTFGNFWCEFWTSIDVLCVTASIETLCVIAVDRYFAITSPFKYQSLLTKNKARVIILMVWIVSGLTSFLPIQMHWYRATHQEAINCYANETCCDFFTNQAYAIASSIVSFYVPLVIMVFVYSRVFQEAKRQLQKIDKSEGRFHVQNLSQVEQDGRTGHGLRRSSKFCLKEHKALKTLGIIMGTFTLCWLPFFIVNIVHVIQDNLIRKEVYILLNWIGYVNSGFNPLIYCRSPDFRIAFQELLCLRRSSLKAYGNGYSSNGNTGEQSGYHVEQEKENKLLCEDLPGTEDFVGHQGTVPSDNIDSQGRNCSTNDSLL
In test [7] the target is T3, 5-hydroxytryptamine receptor 2B. It counts as functional, cell-based. This is another data set of the same source.
Further: assay procedure not described here.

Beta-1 adrenergic receptor, sequence (P08588 whole entry): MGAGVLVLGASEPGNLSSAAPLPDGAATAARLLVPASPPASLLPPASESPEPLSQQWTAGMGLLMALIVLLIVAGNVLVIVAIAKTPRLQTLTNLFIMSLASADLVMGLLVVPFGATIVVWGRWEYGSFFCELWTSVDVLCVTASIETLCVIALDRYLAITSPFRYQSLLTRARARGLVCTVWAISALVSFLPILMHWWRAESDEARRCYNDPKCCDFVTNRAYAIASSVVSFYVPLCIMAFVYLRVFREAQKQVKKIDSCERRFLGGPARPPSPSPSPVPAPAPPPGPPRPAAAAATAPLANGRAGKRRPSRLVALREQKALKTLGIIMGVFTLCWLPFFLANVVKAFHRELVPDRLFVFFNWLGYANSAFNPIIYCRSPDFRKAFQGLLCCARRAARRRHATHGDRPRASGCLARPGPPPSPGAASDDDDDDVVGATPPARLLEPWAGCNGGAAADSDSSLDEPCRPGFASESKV
cGMP-inhibited 3',5'-cyclic phosphodiesterase 3A, sequence (Q14432 whole entry): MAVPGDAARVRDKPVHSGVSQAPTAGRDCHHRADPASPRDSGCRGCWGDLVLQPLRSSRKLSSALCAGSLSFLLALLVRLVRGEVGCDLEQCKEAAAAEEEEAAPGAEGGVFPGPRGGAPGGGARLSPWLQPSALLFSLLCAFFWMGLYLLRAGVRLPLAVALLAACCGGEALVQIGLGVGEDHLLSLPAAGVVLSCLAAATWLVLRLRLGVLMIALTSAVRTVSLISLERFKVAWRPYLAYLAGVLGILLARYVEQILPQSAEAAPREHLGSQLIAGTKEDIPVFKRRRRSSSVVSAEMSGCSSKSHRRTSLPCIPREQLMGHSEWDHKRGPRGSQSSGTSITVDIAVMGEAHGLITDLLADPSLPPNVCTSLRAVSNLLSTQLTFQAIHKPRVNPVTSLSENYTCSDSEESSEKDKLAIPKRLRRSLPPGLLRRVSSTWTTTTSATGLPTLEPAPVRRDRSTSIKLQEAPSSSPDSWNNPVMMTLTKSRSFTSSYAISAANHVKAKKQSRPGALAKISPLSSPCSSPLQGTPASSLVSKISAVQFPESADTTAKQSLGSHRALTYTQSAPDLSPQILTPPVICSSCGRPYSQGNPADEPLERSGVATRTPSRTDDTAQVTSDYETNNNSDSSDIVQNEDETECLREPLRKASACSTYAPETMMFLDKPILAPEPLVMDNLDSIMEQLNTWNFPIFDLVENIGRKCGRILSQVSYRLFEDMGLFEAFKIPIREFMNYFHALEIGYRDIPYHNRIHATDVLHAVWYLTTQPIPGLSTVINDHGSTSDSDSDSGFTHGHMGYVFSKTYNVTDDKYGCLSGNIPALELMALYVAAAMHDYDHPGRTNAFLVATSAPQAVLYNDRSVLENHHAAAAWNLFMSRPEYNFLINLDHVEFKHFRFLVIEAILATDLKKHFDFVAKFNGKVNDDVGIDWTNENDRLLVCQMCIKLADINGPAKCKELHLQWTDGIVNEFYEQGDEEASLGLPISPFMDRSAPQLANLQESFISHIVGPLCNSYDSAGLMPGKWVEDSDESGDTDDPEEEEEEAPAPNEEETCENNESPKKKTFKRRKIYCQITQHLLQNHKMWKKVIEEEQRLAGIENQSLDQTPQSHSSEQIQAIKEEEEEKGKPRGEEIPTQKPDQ

For `C[C@@H](NCCCc1cccc(C(F)(F)F)c1)c1cccc2ccccc12`, the AC50 on Adenosine receptor A1 is greater than 30 µM; in test [1], 8.8 µM; in test [2], greater than 30 µM; at D(1A) dopamine receptor, greater than 30 µM; in test [3] it was greater than 30 µM; in test [4], greater than 30 µM. In addition, the AC50 in test [5] is greater than 30 µM.
Turning to `COc1ccc(CC2c3cc(OC)c(OC)cc3CC[N+]2(C)CCC(=O)OCCCCCOC(=O)CC[N+]2(C)CCc3cc(OC)c(OC)cc3C2Cc2ccc(OC)c(OC)c2)cc1OC` (stereo not given), the AC50 (at Adenosine receptor A1; in test [1]; in [6]; in test [2]; on D(1A) dopamine receptor; in [3]) was greater than 30 µM in each case. Besides, the AC50 in test [7], in [4] and in test [5] was greater than 30 µM each time.
For the molecule `CCN1CCN(Cc2ccc(Nc3ncc(F)c(-c4cc(F)c5nc(C)n(C(C)C)c5c4)n3)nc2)CC1` [ABEMACICLIB], the AC50 on Adenosine receptor A1 is greater than 30 µM; in [1], greater than 30 µM; at D(1A) dopamine receptor it was greater than 30 µM; in test [3], greater than 30 µM; in test [7], 19 µM; in [4] it was greater than 30 µM. Moreover, the AC50 in test [5] is greater than 30 µM.
Consider `COc1ccccc1Oc1c(NS(=O)(=O)c2ccc(C(C)(C)C)cc2)nc(-c2ncccn2)nc1OCCO` [BOSENTAN], for which the AC50 on Adenosine receptor A1 is greater than 30 µM; in test [1], greater than 30 µM; in [6] it was greater than 10 µM; in test [2] it was greater than 30 µM; at D(1A) dopamine receptor, greater than 10 µM; in test [3], greater than 10 µM. Moreover, the AC50 in test [7] was greater than 10 µM; in test [4] it was greater than 30 µM; in test [5], greater than 30 µM.
Regarding `CC(C(=O)O)c1ccc2c(c1)[nH]c1ccc(Cl)cc12` (stereo not given) [CARPROFEN], the AC50 at Adenosine receptor A1 is greater than 30 µM; in test [1], greater than 30 µM; in test [6], greater than 10 µM; in [2] it was greater than 30 µM; on D(1A) dopamine receptor, greater than 10 µM; in test [3] it was greater than 10 µM. Besides, the AC50 in test [7] was greater than 10 µM; in test [4] it was greater than 30 µM; in [5] it was greater than 30 µM.
For `COc1ccccc1OCCNCC(O)COc1cccc2[nH]c3ccccc3c12` (stereo not given) [CARVEDILOL], the AC50 at Adenosine receptor A1 is greater than 30 µM; in test [2], greater than 30 µM; at D(1A) dopamine receptor, greater than 10 µM; in test [3], greater than 30 µM; in test [7], 0.532 µM; in test [4] it was 31.7 µM. The AC50 in test [5] is greater than 30 µM.
As for `O=C1CCc2cc(OCCCCc3nnnn3C3CCCCC3)ccc2N1` [CILOSTAZOL], the AC50 (at Adenosine receptor A1; in test [1]; in test [6]; in test [2]; at D(1A) dopamine receptor; in [3]) was greater than 30 µM throughout. Moreover, the results for the AC50 in test [7], in [4] and in test [5] were greater than 30 µM, 30 µM and 0.424 µM, respectively.
In the case of `O=C1CN(/N=C/c2ccc(-c3ccc([N+](=O)[O-])cc3)o2)C(O)=N1` [DANTROLENE], the AC50 at Adenosine receptor A1 is 25 µM; in test [1], greater than 10 µM; in test [6] it was greater than 10 µM; at D(1A) dopamine receptor, greater than 10 µM; in [3], greater than 10 µM; in [7], greater than 10 µM. In addition, the half-maximal activity concentration (AC50) was greater than 10 µM in test [4] and greater than 30 µM in test [5].
As to `C[C@]12C=CC(=O)N[C@@H]1CC[C@@H]1[C@@H]2CC[C@]2(C)[C@@H](C(=O)Nc3cc(C(F)(F)F)ccc3C(F)(F)F)CC[C@@H]12` [DUTASTERIDE], the half-maximal activity concentration (AC50) (on Adenosine receptor A1; in test [1]; in test [6]; at D(1A) dopamine receptor; in [3]; in [7]) was greater than 10 µM each time. Also, the figures for the AC50 in [4] and in test [5] were greater than 10 µM and greater than 30 µM, respectively.
As to `CN1C[C@H](C(=O)N[C@]2(C)O[C@@]3(O)[C@@H]4CCCN4C(=O)[C@H](Cc4ccccc4)N3C2=O)C=C2c3cccc4[nH]cc(c34)C[C@H]21` [ERGOTAMINE], the AC50 on Adenosine receptor A1 was greater than 30 µM; in test [1] it was greater than 30 µM; at D(1A) dopamine receptor, 0.59 µM; in test [3] it was greater than 10 µM; in test [4], greater than 30 µM; in test [5], greater than 30 µM.
In the case of `CN(C)CCC[C@@]1(c2ccc(F)cc2)OCc2cc(C#N)ccc21` [ESCITALOPRAM], the AC50 was greater than 30 µM at Adenosine receptor A1; greater than 30 µM in test [1]; greater than 30 µM in [2]; greater than 30 µM in test [3]; 22 µM in test [7]; greater than 30 µM in test [4]. For the same molecule, the AC50 in test [5] was greater than 30 µM.
Take `CN(CC1(C)CCCO1)S(=O)(=O)c1ccc(Cl)c(S(N)(=O)=O)c1` (stereo not given) [MEFRUSIDE]: the AC50 (on D(1A) dopamine receptor; in test [3]; in test [7]; in [5]) was greater than 30 µM each time.
Take `C=C[C@H]1C[N@@]2CC[C@H]1C[C@@H]2[C@@H](O)c1ccnc2ccc(OC)cc12` [QUINIDINE]: the AC50 at Adenosine receptor A1 is greater than 30 µM; in [6], greater than 10 µM; in [2], greater than 30 µM; at D(1A) dopamine receptor, greater than 10 µM; in test [3] it was 1.16 µM; in test [4], greater than 30 µM. The AC50 in test [5] was greater than 30 µM.
In the case of `CC(N)C12CC3CC(CC(C3)C1)C2` (stereo not given) [RIMANTADINE], the AC50 (at Adenosine receptor A1; in test [1]; in test [6]; on D(1A) dopamine receptor; in [3]; in [7]) was greater than 10 µM throughout. Besides, the AC50 in test [4] was greater than 10 µM; in [5], greater than 30 µM.
As for `CC(C)c1nc(N(C)S(C)(=O)=O)nc(-c2ccc(F)cc2)c1/C=C/[C@@H](O)C[C@@H](O)CC(=O)O` [ROSUVASTATIN], the AC50 (on Adenosine receptor A1; in [1]; in test [2]; on D(1A) dopamine receptor; in test [3]; in [7]) was greater than 30 µM in each case. Moreover, the AC50 in test [4] and in test [5] was greater than 30 µM each time.
Regarding `O=C1C(CC[S+]([O-])c2ccccc2)C(=O)N(c2ccccc2)N1c1ccccc1` (stereo not given) [SULFINPYRAZONE], the AC50 at Adenosine receptor A1 was greater than 10 µM; in test [1], greater than 10 µM; in test [6], greater than 10 µM; on D(1A) dopamine receptor it was greater than 10 µM; in test [3], greater than 30 µM; in test [7], greater than 30 µM. In addition, the AC50 in test [4] was greater than 10 µM; in test [5] it was greater than 30 µM.
On to `CCN(CC)CCNC(=O)c1c(C)[nH]c(/C=C2\C(=O)Nc3ccc(F)cc32)c1C` [SUNITINIB], for which the AC50 on Adenosine receptor A1 is 6.4 µM; in test [6], 8 µM; in test [2] it was greater than 10 µM; in [3], greater than 30 µM; in test [7], 5.2 µM; in test [4], 5 µM. Half-maximal activity in test [5] (AC50) was put at 18 µM.
Regarding `CC(C)(C)NCC(O)c1cc(O)cc(O)c1` (stereo not given) [TERBUTALINE], the AC50 (at Adenosine receptor A1; in test [2]; in test [4]) was greater than 30 µM throughout.
Consider `CC(S)C(=O)NCC(=O)O` (stereo not given) [TIOPRONIN], for which the AC50 (on Adenosine receptor A1; in test [1]; on D(1A) dopamine receptor; in test [3]; in test [7]; in [4]) was greater than 30 µM throughout. In test [5], this molecule showed an AC50 greater than 30 µM.
On to `C[C@H](CCC(=O)O)[C@H]1CC[C@H]2[C@@H]3[C@@H](O)C[C@@H]4C[C@H](O)CC[C@]4(C)[C@H]3CC[C@]12C` [URSODIOL], for which the AC50 (on Adenosine receptor A1; in [1]; at D(1A) dopamine receptor; in [3]; in [7]; in test [4]) was greater than 30 µM in each case. This molecule returned an AC50 in [5] greater than 30 µM.

What is called AC50 is the concentration at which the activity in the assay is half-maximal. Higher therefore signals activity only at high concentration.
